Here are results for one compound from publication PMC2945410 (Journal of molecular biology, 2010).

One assay addresses T1, E. coli YahA (Escherichia coli, UniProt P21514).
T1 sequence (P21514 73-362): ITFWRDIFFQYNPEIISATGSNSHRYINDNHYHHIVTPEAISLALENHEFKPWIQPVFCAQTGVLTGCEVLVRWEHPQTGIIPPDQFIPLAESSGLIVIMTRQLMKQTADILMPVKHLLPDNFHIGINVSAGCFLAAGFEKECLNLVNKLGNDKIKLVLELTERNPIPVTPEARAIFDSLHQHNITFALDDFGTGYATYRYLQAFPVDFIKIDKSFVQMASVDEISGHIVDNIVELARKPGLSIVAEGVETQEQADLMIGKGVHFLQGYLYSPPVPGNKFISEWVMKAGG
Description: p-nitrophenol release, absorbance at […] nm. The settings on record: 10 mM bis-pNPP, 50 mM HEPES pH 7.5, 2 mM MnCl2. Format: biochemical.

A further assay deals with T2, TBD1660 (Thiobacillus denitrificans, UniProt Q3SIB5).
T2 sequence (Q3SIB5 443-698): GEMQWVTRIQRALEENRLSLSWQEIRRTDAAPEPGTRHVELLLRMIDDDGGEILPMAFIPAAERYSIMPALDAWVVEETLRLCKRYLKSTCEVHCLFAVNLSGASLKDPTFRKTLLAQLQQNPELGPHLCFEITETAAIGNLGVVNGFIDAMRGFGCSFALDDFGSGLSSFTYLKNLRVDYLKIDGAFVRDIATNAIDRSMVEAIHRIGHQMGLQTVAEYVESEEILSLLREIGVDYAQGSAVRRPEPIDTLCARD
Description: p-nitrophenol release, absorbance at […] nm. The class given is biochemical. The following applies: 10 mM bis-pNPP, 50 mM HEPES pH 7.5, 2 mM MnCl2.

In the case of `O=[N+]([O-])c1ccc(OP(=O)(O)Oc2ccc([N+](=O)[O-])cc2)cc1` [bis-pNPP, bis-p-nitrophenyl phosphate], the “p-nitrophenol release, absorbance at 410 nm” value was “E. coli YahA and T. denitrificans TBD1660 showing the highest activities” at E. coli YahA; “E. coli YahA and T. denitrificans TBD1660 showing the highest activities” at TBD1660.
